Assay results reported in patent US10435388B2, “Selective inhibitors of clinically important mutants of the EGFR tyrosine kinase” (CS PHARMATECH LIMITED, priority 2016, dated 2019).
Where two headings read alike, the source gives them in different places.

What was measured:
[1] = system: p-EGFR in H1975 cells (L858R/T790M double mutant EGFR)
Procedure: H1975 cells were cryopreserved in liquid nitrogen. […] Remove the vial from liquid nitrogen and thaw rapidly by placing at 37° C. in a water bath with gentle agitation for 1-2 minutes and then decontaminated by wiping with 70% ethanol before opening in a Class II biological safety cabinet. Transfer the vial contents drop-wise into 10 mL of cell culture medium in a sterile 15 mL conical tube. Then centrifuged the tube at 200× g for 5 minutes and aspirate the supernatant. Re-suspend the cell pellet with 1 mL of fresh cell culture medium and transfer it in to the T75 flask containing cell culture medium.
To passage H1975 cells, firstly, the adherent cells were rinsed with Trypsin/EDTA. Then add Trypsin/EDTA (3 mL for a T75 flask) into the flask and swirl to ensure the cells coated with trypsin evenly. Then incubate the flasks at 37° C. until the cells detach. Add equal volume of cell culture medium to stop the reaction. Collect the detached cells and centrifuged at 200× g for 5 minutes followed by re-suspended in fresh culture medium. Then, the cells were transferred into a new T75 flask containing cell culture medium. Cells were sub-cultured three times per week at a ratio of 1:4 in culture medium.
Harvest cells from flask into cell culture medium and the cell numbers counted using Automated Cell Counter (Thermo Fisher Scientific, Countess™). Dilute the cells into 250,000 cells/mL with culture medium and add 40 μL of cell suspension into each well of 384-well cell culture plate as designated. The final concentration was 10,000 cells/well. The plates were covered with lid and placed in 37° C. 5% CO2 incubator overnight for cell attachment.
On the second day, test compounds were dissolved in DMSO at 10 mM. […] The same volume of DMSO was adopted as high control.
Place the plate back to 37° C. 5% CO2 incubator for 2 hours. Replace the medium of each well with ice-cold HBSS. Then remove the HBSS, add 30 μL cell lysis buffer into each well and shake the plates for 30 mins on a plate shaker. Centrifuge for 5 min at 1,000 rpm to remove bubbles and transfer 25 uL of the lysate supernatant for p-EGFR assay by using a commercial ELISA kit (R&D, DYC1095B-5).
For estimation of IC50, the absorption readout are transformed to % relative activity by applying the following equation
[formula] The IC50 was then calculated by fitting in XLFit (IDBS, Guildford, Surrey) to a four parameters logistic curve.

A431 cells (WT) = experiment: A431 inhibition assay (cell proliferation), Method B; format: cell-based, human; conditions: cellular proliferation, several runs
Procedure: Cell Proliferation Assays—Method B
A431 Inhibition Assay, (Cell Proliferation).
The rest procedure was conducted in the same manner as described above for H1975 cells.

[2] = system: p-EGFR in PC9 cells (Exon 19 deletion EGFR); experiment: Exon19 deletion EGFR (activating single mutant) PC-9 cellular autophosphorylation assay; format: cell-based, human; conditions: 2 h treatment, ELISA
Procedure: (§1) Cellular EGFR Autophosphorylation Assays.
The human lung cell line PC9 (Exon 19 deletion EGFR) is obtained from the American type Culture Collection. […] Cells are grown in a humidified incubator at 37° C. with 5% CO2, Assays to measure cellular phosphorylation of endogenous p-EGFR in cell Iysates are carried out according to the protocol described in the R&D Systems DuoSet IC Human Phospho-EGF R ELISA (R&D Systems catalogue number #DYCI095). 40 μL of cells are seeded (10000 cells/well) in growth medium in Corning black, clear-bottomed 384-well plates and incubated at 37° C., with 5%0/CO2 overnight. […] Plates are incubated for a further 2 h, then following aspiration of medium, 40 μL×lysis buffer is added to each well. Greiner black high bind 384 well plates are coated with capture antibody and then blocked with 3% BSA. Following removal of block, 15 μL of lysate are transferred to the Greiner black high bind 384 well plates and incubated for 2 hours. Following aspiration and washing of the plates with PBS, 20 μL of detection antibody are added and incubated for 2 hours. […] The data obtained with each compound are exported into a suitable software package (such as Origin) to perform curve fitting analysis.

PC9 cells (SM) = experiment: PC-9 growth inhibition assay (cell proliferation), Method B; format: cell-based, human; conditions: cellular proliferation, several runs
[3] = system: p-EGFR in A431 cells (wild type EGFR, EGF stimulated); experiment: Wild type EGFR A431 autophosphorylation inhibition assay (ELISA); format: cell-based, human; conditions: 2 h treatment, EGF stimulation 10 min
Procedure: as §1
Wild Type EGFR A431 Autophosphorylation Inhibition Assay (ELISA).
After 2 hour treatment with test compounds, add 4.5 μL of EGF (1 μg/mL) into each well and stimulate for 10 min. The rest of the procedure was processed in the same manner as described above for H1975 cells.

H1975 cells (DM) = experiment: H1975 inhibition assay (cell proliferation), Method B; format: cell-based; conditions: cellular proliferation, several runs
[4] = system: NCI-H1975 cells (EGFR L858R/T790 double mutant); experiment: H1975 inhibition assay (cell proliferation), Method A; format: cell-based; conditions: Homo sapiens; cellular proliferation, NCI-H1975 cells, 72 h, CellTiter-Glo (Table 1); read-out: NCI-H1975 IC50 (nM) DM
Procedure: (§2) Cell Proliferation Assays—Method A
H1975 Inhibition Assay (Cell Proliferation)
(§3) The final concentration was 4,000 cells/well. Add medium only as low control.
(§4) Day-2: Test compounds were dissolved in DMSO at 0.2 mM (200×).
(§5) Day-5: After 72 hours incubation, remove the plates from incubator and equilibrate at room temperature for 15 minutes. Incubate the CellTiter Glo reagents (Promega, G9243) at 37° C. before the experiment. The buffer was equilibrated to room temperature and used to dissolve the substrate. To determine the cell viability, add 30 μL of CellTiter-Glo reagent into each well to be detected. Then shake the plates at room temperature for 10 min and followed by plate read on Envision (PerkinElmer).
(§6) For estimation of IC50, the luminescence readout are transformed to % Inhibition by applying the following equation: The IC50 was then
(§7) [formula] calculated by fitting in XLFit to a four parameters logistic curve.

[5] = system: PC9 cells (EGFR d746-750 single mutant); experiment: PC-9 growth inhibition assay (cell proliferation), Method A; format: cell-based, human; conditions: Homo sapiens, PC-9; cellular proliferation, PC9 cells, 72 h, CellTiter-Glo (Table 1); read-out: PC9 IC50 (nM) SM
Procedure: as §2, §3, §4, §5, §6, §7
PC-9 Growth Inhibition Assay (Cell Proliferation)
The inhibition assay for PC-9 cells was processed in the same manner as described for the H1975 cells.

Wt EGFR = target: T1, Wt EGFR (Homo sapiens, UniProt P00533); experiment: Enzyme assay, IC50 for wt EGFR (Caliper); format: biochemical; conditions: enzyme phosphorylation assay; read-out: EGFR_WT IC50
T1 construct: isolated from A431 human epidermoid carcinoma cells which overexpress EGF receptor; endogenous in cells; host or cells: A431 human epidermoid carcinoma cells (receptor purified on wheat germ agglutinin sepharose)
Procedure: Purification of Epidermal Growth Factor Receptor Tyrosine Kinase Human EGF receptor tyrosine kinase was isolated from A431 human epidermoid carcinoma cells which overexpress EGF receptor by the following methods. Cells were grown in roller bottles in 50% Delbuco's Modified Eagle and 50% HAM F-12 nutrient media (Gibco) containing 10% fetal calf serum. Approximately 10^9 cells were lysed in two volumes of buffer containing 20 mM 2-(4N-[2-hydroxyethyl]piperazin-1-yl)ethanesulfonic acid (hepes), pH 7.4, 5 mM ethylene glycol bis(2-aminoethyl ether) N,N,N′,N′-tetraacetic acid, 1% Triton X-1OO, 10% glycerol. 0.1 mM sodium orthovanadate, 5 mM sodium fluoride, 4 mM pyrophosphate, 4 mM benzamide, 1 mM dithiothreitol, 80 μg/mL aprotinin, 40 μg/mL leupeptin and 1 mM phenylmethylsulfonyl fluoride. After centrifugation at 25,000×g for 10 minutes, the supernatant was equilibrated for 2 h at […], with 10 mL of wheat germ agglutinin sepharose that was previously equilibrated with 50 mM Hepes, 10% glycerol, 0.1% Triton X-100 and 150 mM NaCl, pH 7.5, (equilibration buffer). Contaminating proteins were washed from the resin with 1M NaCl in equilibration buffer, and the enzyme was eluted with 0.5M N-acetyl-1-D-glucosamine in equilibration buffer, followed by 1 mM urea. The enzyme was eluted with 0.1 mg/ml EGF.
Determination of IC50 Values for Wt EGFR
Dilute all compounds to 500 μM stock solutions in 100% DMSO and make a serial of 4-fold dilution for 10 does. “Max” and “Min” control contain 100% DMSO. “Max” stands for […], “Min” stands for low control without compounds. Transfer 10 μl of compounds to 90 μl of Ix kinase base buffer to make intermediate dilution. Transfer 5 μl of intermediate dilution compounds to the 384-well assay plate, then 10 μl 2.5× enzyme buffer containing (20 nM EGFR, 5 mM DTT, 1× kinase base buffer) were added to assay plate. […] Incubate at RT for 1 hr and 25 μl stop buffer to end up reaction. Collect conversion data from Caliper and conversion data from Caliper program. Fit the data in XLfit to obtain IC50 values.

EGFR_T790M/L858R = EGFR_T790M/L858R (Homo sapiens, UniProt P00533, L858R/T790M); experiment: Enzyme assay, IC50 for double-mutant EGFR (EGFR_T790M/L858R) (Caliper); format: biochemical; conditions: enzyme phosphorylation assay; read-out: EGFR_L858R/T790 IC50
Procedure: (§8) Using the same technique as described in the previous paragraph, various mutated forms of the epidermal growth factor receptor may be isolated from appropriate cell lines which contain them. For example, the EGFR de1746-750 mutant protein may be extracted from PC-9 cells, and the L858R/T790M double mutant EGFR protein may be isolated from H1975 cells.
Determination of IC50 Values for Double-Mutant EGFR (EGFR_T790M/L858R)
Dilute all compounds to 500 μM stock solutions in 100% DMSO and make a serial of 4-fold dilution for 10 does. “Max” and “Min” control contain 100% DMSO. “Max” stands for […], “Min” stands for low control without compounds. Transfer 10 μl of compounds to 90 μl of 1× kinase base buffer to make intermediate dilution. […] Incubate at RT for 1 hr and 25 μl stop buffer to end up reaction. Collect conversion data from Caliper and conversion data from Caliper program. Fit the data in XLfit to obtain IC50 values.

[6] = system: LoVo cells (unmutated EGFR wild type); experiment: LoVo growth inhibition assay (cell proliferation), Method A; format: cell-based; conditions: Homo sapiens, cellular proliferation, 72 h, CellTiter-Glo (Table 1), read-out: LoVo IC50 (nM) WT
Procedure: as §2
LoVo Growth Inhibition Assay (Cell Proliferation)
The rest of the procedure was carried out in the same manner as described for the H1975 cells.

EGFR_d746-750 = EGFR_d746-750 (Homo sapiens, UniProt P00533, DEL746-750); experiment: Enzyme assay, IC50 for single mutant EGFR_d746-750 (Caliper); format: biochemical; conditions: enzyme phosphorylation assay
Procedure: as §8
Determination of IC50 Values for Single Mutant EGFR_d746-750
Dilute all compounds to 500 μM stock solutions in 100% DMSO and make a serial of 4-fold dilution for 10 doses. “Max” and “Min” control contain 100% DMSO. “Max” stands for […], “Min” stands for low control without compounds. Transfer 10 μl of compounds to 90 μl of 1× kinase base buffer to make intermediate dilution. […] Incubate at RT for 1 hr and 25 μl stop buffer to end up reaction. Collect conversion data from Caliper and conversion data from Caliper program. Fit the data in XLfit to obtain IC50 values.

[7] = Homo sapiens, NCI-H1975, 2 h, read-out: H1975 IC50 (nM), cellular EGFR autophosphorylation, 2 h treatment, ELISA
[8] = Homo sapiens, A-431, cellular EGFR autophosphorylation

T1 sequence (P00533 25-1210): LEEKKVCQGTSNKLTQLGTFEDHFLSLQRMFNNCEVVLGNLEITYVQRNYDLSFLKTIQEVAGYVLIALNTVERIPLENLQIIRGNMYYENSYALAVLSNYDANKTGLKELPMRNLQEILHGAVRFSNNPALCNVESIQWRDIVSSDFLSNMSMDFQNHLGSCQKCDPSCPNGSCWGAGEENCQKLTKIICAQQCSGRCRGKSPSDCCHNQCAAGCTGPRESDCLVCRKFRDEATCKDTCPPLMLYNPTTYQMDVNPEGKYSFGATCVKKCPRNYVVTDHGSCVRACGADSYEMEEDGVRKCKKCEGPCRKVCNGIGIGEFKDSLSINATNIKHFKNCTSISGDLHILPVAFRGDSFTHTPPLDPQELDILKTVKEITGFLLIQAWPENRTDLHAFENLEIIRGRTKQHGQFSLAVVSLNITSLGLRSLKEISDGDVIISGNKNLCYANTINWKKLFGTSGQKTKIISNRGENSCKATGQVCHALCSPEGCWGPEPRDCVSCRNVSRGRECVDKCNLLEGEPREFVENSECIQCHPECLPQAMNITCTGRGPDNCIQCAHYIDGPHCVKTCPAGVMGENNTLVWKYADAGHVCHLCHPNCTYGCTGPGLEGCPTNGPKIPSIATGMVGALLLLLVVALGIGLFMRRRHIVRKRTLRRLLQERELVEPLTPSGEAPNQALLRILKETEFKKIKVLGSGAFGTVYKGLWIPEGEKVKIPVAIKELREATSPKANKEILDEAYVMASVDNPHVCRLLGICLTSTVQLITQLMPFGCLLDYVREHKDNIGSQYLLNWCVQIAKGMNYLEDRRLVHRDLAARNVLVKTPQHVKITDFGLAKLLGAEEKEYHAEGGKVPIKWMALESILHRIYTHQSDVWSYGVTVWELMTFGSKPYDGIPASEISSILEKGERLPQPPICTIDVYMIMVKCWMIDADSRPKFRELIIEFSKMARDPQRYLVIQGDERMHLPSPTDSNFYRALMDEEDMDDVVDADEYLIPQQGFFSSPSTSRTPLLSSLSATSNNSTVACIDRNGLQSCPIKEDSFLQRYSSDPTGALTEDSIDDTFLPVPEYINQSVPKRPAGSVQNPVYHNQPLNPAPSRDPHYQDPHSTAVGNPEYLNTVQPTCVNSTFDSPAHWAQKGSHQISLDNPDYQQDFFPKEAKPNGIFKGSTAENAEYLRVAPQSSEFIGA
Chain of EGFR_d746-750 (P00533 with tags, fused parts or gaps DEL746-750): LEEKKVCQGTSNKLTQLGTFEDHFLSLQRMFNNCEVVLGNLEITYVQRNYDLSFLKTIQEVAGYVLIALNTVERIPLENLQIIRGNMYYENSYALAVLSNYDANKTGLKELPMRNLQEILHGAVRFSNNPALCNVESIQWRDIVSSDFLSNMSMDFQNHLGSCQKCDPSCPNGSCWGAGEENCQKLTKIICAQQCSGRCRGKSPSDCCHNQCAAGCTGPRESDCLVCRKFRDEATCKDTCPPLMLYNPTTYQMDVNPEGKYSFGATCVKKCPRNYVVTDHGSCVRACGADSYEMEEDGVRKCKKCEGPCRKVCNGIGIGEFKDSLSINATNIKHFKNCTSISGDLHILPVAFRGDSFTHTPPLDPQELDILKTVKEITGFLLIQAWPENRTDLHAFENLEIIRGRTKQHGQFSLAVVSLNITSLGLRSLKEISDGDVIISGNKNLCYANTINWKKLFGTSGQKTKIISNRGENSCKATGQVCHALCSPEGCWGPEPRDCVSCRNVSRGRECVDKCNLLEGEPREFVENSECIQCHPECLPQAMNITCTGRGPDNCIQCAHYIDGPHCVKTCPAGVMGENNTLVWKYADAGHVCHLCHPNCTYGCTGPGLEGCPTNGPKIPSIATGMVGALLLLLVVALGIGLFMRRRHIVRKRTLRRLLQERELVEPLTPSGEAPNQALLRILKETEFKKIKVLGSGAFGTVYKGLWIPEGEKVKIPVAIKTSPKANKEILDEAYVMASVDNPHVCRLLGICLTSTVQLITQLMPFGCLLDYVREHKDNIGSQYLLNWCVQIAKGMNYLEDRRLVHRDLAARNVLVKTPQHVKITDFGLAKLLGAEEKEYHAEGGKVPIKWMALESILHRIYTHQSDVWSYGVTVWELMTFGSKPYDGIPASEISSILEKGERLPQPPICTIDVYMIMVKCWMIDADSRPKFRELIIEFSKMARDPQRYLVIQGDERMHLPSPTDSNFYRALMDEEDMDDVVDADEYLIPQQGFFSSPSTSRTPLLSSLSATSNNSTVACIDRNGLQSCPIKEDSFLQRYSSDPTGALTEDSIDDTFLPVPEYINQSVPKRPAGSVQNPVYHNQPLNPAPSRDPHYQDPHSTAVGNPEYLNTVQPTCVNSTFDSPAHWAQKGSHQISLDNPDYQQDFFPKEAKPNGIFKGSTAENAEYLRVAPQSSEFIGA
Chain of EGFR_T790M/L858R (P00533 25-1210 T790M/L858R): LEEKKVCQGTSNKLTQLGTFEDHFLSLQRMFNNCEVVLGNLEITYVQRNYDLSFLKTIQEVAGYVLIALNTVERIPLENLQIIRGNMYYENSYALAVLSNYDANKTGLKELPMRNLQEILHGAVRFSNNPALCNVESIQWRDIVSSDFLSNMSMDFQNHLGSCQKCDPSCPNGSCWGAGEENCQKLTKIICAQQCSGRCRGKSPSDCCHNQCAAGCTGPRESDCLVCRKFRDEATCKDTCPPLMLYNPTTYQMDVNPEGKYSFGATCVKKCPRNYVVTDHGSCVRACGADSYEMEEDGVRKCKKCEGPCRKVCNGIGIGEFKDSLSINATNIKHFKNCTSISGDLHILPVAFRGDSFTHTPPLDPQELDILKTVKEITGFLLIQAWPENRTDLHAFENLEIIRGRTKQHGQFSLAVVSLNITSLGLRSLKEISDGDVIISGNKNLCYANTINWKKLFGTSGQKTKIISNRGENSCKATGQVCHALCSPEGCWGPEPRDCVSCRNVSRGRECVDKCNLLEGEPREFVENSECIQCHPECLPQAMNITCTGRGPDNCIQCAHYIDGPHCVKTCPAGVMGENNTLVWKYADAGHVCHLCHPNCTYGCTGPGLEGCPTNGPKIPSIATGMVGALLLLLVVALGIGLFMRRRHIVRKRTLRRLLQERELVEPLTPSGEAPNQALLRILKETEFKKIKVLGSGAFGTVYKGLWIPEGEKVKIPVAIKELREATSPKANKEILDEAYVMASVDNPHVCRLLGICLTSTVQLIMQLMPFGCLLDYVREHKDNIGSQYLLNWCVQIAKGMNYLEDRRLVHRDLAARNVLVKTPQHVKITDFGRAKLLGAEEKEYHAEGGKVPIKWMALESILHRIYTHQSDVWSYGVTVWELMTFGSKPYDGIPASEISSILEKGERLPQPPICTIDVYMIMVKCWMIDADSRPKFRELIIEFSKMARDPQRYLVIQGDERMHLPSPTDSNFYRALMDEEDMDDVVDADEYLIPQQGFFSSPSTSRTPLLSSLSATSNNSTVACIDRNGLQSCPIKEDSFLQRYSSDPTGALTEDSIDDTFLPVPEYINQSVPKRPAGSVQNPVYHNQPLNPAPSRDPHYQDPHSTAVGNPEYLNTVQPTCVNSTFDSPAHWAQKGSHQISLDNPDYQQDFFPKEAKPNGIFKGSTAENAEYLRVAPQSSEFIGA

IC50 [4] [nM] | IC50 [5] [nM] | IC50 (Wt EGFR) [nM] | IC50 (EGFR_T790M/L858R) [nM] | IC50 [6] [nM] | IC50 (EGFR_d746-750) [nM] | Structure (SMILES) | also measured
– | – | – | – | – | – | C=CC(=O)N1CC[C@@H](Oc2nc(Nc3ccc(N4CCC(N5CCN(C)CC5)CC4)cc3)c(C(N)=O)nc2CC)C1 [ASP8273] | IC50 [1, 7]: 7.8 nM; IC50 (A431 cells (WT); Homo sapiens, A-431, 72 h): 675 nM; IC50 ([2]; Homo sapiens, PC-9, 2 h): 37.3 nM; IC50 (PC9 cells (SM); Homo sapiens, PC-9, 72 h): 15.9 nM; IC50 [3, 8]: 218 nM; IC50 (H1975 cells (DM); Homo sapiens, NCI-H1975, 72 h): 12.1 nM
– | – | – | – | – | – | Cc1cc(C(=O)Nc2nc3cccc(Cl)c3n2[C@@H]2CCCCN(C(=O)/C=C/CN(C)C)C2)ccn1 [EGF 816] | IC50 ([1]; read-out: H1975 IC50, cellular EGFR autophosphorylation, 2 h treatment, ELISA): 43.7 nM; IC50 (A431 cells (WT); 72 h): 2850 nM; IC50 [2]: 25.4 nM; IC50 (PC9 cells (SM); 72 h): 67.3 nM; IC50 ([3]; cellular EGFR autophosphorylation): 276 nM; IC50 (H1975 cells (DM); 72 h): 77.9 nM
1.5 | 2.2 | 1.3 | 1.2 | 12000 | 0.91 | C=CC(=O)Nc1cc(Nc2nccc(-n3c(=O)[nH]c4ccccc43)n2)c(OC)cc1N(C)CCN(C)C [Example 10, N-(2-(N-(2-(N,N-Dimethylamino)ethyl)-N-methylamino)-4-methoxy-5-(4-(2-oxo-2,3-dihydrobenzimidazol-1-yl)pyrimidin-2-ylamino)phenyl) propenamide] | –
2.3 | 2.9 | 1.5 | 1.3 | 4730 | 1 | C=CC(=O)Nc1cc(Nc2nccc(-c3c[nH]c4c(C)cccc34)n2)c(OC)cc1N(C)CCN(C)C [Example 11, N-(2-(N-(2-(N,N-Dimethylamino)ethyl)-N-methylamino)-4-methoxy-5-(4-(7-methylindol-3-yl)pyrimidin-2-ylamino)phenyl) propenamide] | –
3.5 | 5.2 | 1.5 | 1.2 | 2560 | 1.1 | C=CC(=O)Nc1cc(Nc2nccc(-c3c[nH]c4c(C#N)cccc34)n2)c(OC)cc1N(C)CCN(C)C [Example 12, N-(2-(N-(2-(N,N-Dimethylamino)ethyl)-N-methylamino)-4-methoxy-5-(4-(7-cyanoindol-3-yl)pyrimidin-2-ylamino)phenyl) propenamide] | –
5.6 | 9.9 | 6.7 | 1.5 | 5810 | 1.7 | C=CC(=O)Nc1cc(Nc2nccc(N3CCc4ccccc43)n2)c(OC)cc1N(C)CCN(C)C [Example 13, N-(2-(N-(2-(N,N-Dimethylamino)ethyl)-N-methylamino)-4-methoxy-5-(4-(2,3-dihydroindol-1-yl)pyrimidin-2-ylamino)phenyl) propenamide] | –
3.7 | 6.1 | 5 | 1.8 | 2980 | 1 | C=CC(=O)Nc1cc(Nc2nccc(-c3c(C)[nH]c4ccccc34)n2)c(OC)cc1N(C)CCN(C)C [Example 14, N-(2-(N-(2-(N,N-Dimethylamino)ethyl)-N-methylamino)-4-methoxy-5-(4-(2-methylindol-3-yl)pyrimidin-2-ylamino)phenyl) propenamide] | –
2.9 | 3.3 | 1.9 | 1.5 | 13500 | 1.1 | C=CC(=O)Nc1cc(Nc2nccc(-c3n[nH]c4ccccc34)n2)c(OC)cc1N(C)CCN(C)C [Example 15, N-(2-(N-(2-(N,N-Dimethylamino)ethyl)-N-methylamino)-4-methoxy-5-(4-(indazol-3-yl)pyrimidin-2-ylamino)phenyl) propenamide] | –
– | – | – | – | – | – | C=CC(=O)Nc1cc(Nc2nccc(-n3nc(NC(C)C)c4ccccc43)n2)c(OC)cc1N(C)CCN(C)C [Example 43] | IC50 [1, 7]: 10.2 nM; IC50 (A431 cells (WT); Homo sapiens, A-431, 72 h): 218 nM; IC50 ([2]; Homo sapiens, PC-9, 2 h): 10.3 nM; IC50 (PC9 cells (SM); Homo sapiens, PC-9, 72 h): 3.3 nM; IC50 [3, 8]: 73.4 nM; IC50 (H1975 cells (DM); Homo sapiens, NCI-H1975, 72 h): 3.96 nM
